Experimental findings from US20070185104A1, “Benzoxazole acetonitriles” (APPLIED RESEARCH SYSTEMS ARS HOLDING N.V., priority 2003, published 2007) are described below.

Some results are limits rather than exact numbers.

Chain of human GSK3 beta (P49841 whole entry): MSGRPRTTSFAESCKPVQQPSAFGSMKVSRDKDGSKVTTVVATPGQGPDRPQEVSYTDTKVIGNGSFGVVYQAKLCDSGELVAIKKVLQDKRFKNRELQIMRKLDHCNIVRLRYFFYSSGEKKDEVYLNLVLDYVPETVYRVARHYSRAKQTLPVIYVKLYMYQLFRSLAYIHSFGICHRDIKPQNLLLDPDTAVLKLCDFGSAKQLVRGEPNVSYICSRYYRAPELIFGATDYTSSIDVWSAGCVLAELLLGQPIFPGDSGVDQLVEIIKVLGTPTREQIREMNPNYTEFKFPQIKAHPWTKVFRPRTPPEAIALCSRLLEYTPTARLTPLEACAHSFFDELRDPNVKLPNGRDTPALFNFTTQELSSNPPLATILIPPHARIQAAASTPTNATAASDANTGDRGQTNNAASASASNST

One assay has as its target human GSK3 beta (Homo sapiens, UniProt P49841). As to the kind of experiment: GSK3β in vitro assay (33P-ATP phosphorylation of phospho GS2 peptide). In kind it is biochemical. The conditions noted are these: In vitro potency on human GSK3 beta; read-out: IC50 (μM) GSK3beta. The method, then:
GSK3β Assay (see Bioorg. Med. Chem. Lett by Naerum et al. 12 p. 1525-1528 (2002))
In a final reaction volume of 25 μl, GSK3β (h) (5-10 mU) is incubated with 8 mM MOPS pH 7.0, 0.2 mM EDTA, 20 μM […](p)EDEEE (being the GSK3 substrate; a phospho GS2 peptide), 10 mM Mg Acetate and [γ-^33P-ATP] (Specific activity approx. 500 cpm/pmol, concentration as required). The reaction is initiated by the addition of Mg^2+ [γ-^33P-ATP]. After incubation for 40 minutes at room temperature, the reaction is stopped by the addition of 5 μl of a 3% phosphoric acid solution. 10 μl of the reaction is then spotted onto a P30 filtermat and washed three times for 5 minutes in 50 mM phosphoric acid and once in methanol prior to drying and the degree of phosphorylation of the substrate is determined by scintillation counting.
Broadly, the IC50 is the midpoint of a concentration-inhibition curve. On to `N#C/C(=C1\Nc2ccccc2O1)c1ccnc(NC2CC2)n1` [Example 10, 1,3-benzoxazol-2(3H)-ylidene[2-(cyclopropylamino)pyrimidin-4-yl]acetonitrile], for which the half-maximal inhibitory concentration (IC50) is less than 10 µM.
Turning to `CCN1CCN(c2cc(/C(C#N)=C3/Nc4ccccc4O3)ncn2)CC1` [Example 49, 1,3-benzoxazol-2(3H)-ylidene[6-(4-ethylpiperazin-1-yl)pyrimidin-4-yl]acetonitrile], the IC50 is less than 10 µM.
For the compound `Cc1cc(/C(C#N)=C2/Nc3ccccc3O2)nc(NCCCn2cncn2)n1` [Example 47], the IC50 was less than 10 µM.
For `N#C/C(=C1\Nc2ccccc2O1)c1ccnc(NCc2cccnc2)n1` [Example 41, 1,3-benzoxazol-2(3H)-ylidene{2-[(pyridin-3-ylmethyl)amino]pyrimidin-4-yl}acetonitrile], the half-maximal inhibitory concentration (IC50) is less than 10 µM.
For `CC(=O)N1CCN(C(=O)CCCNc2nccc(/C(C#N)=C3\Nc4ccccc4O3)n2)CC1` [Example 70, (2-{[4-(4-acetyl-1-piperazinyl)-4-oxobutyl]amino}-4-pyrimidinyl)(1,3-benzoxazol-2(3H)-ylidene)ethanenitrile], the half-inhibitory concentration (IC50) is less than 10 µM.
The same measure, in the same setting: the figure for `CN(C)CCCC(=O)Nc1nccc(/C(C#N)=C2/Nc3ccccc3O2)n1` [Example 89, N-{4-[1,3-benzoxazol-2(3H)-ylidene(cyano)methyl]-2-pyrimidinyl}-4-(dimethylamino)butanamide] is less than 10 µM.
Take `CC(C)OCCCNc1nccc(/C(C#N)=C2/Nc3ccccc3O2)n1` [Example 42, 1,3-benzoxazol-2(3H)-ylidene{2-[(3-isopropoxypropyl)amino]pyrimidin-4-yl}acetonitrile]: the IC50 is less than 10 µM.

The next assay relates to db/db mice. As to the kind of experiment: Experimental model of type II diabetes (oral postprandial glycemia in db/db mice). In kind it is in vivo. The conditions noted are these: p.o. 50 mg/kg, 4 hrs after drug administration, food intake after 20 h fasting, compared to vehicle Group 1. On the procedure:
b) In vivo Assay: Experimental Model of Type II Diabetes (Oral Postprandial Glycemia in db/db Mice)
The following assay aims at determining the anti-diabetic effect of the test compounds of formula (I) in a model of postprandial glycemia in db/db mice, in vivo.
The assay was performed as follows:
A total of 24 db/db mice (about 8-9 weeks; obtained from IFFACREDO, l'Arbreste, France) were fasted during 20 hours.
2 groups, each consisting of 6 animals were formed: • Group 1: The animals were administered (per os) a dose of 10 mg/kg of vehicle. • Group 2: The animals were administered (per os) a dose of 50 mg/kg of the test compound according to formula (I).
After oral administration of the compounds of formula (I) solubilized or suspended in CarboxyMethylCellulose (0.5%), Tween 20 (0.25%) and water as vehicle, the animals had access to commercial food (D04, UAR, Villemoisson/Orge, France) ad libitum. The diabetic state of the mice was verified by determining the blood glucose level before drug administration. Blood glucose and serum insulin levels were then determined 4 hrs after drug administration.
The determination of the blood glucose level was performed using a glucometer (Precision Q.I.D., Medisense, Abbot, ref. 212.62.31). […]
Changes in blood glucose and serum insulin of drug treated mice were expressed as a percentage of control (group 1: vehicle treated mice).
Turning to `N#C/C(=C1\Nc2ccccc2O1)c1ccnc(NCCCN2CCCC2=O)n1` [Example 5, 1,3-benzoxazol-2(3H)-ylidene(2-{[3-(2-oxopyrrolidin-1-yl)propyl]amino}pyrimidin-4-yl)acetonitrile], the “blood glucose level reduced (percentage of vehicle control)” value is “about 25%”.

Staying with this assay, now noted: p.o. 50 mg/kg, serum insulin 4 hrs after drug administration, compared to vehicle Group 1.
Turning to `N#C/C(=C1\Nc2ccccc2O1)c1ccnc(NCCCN2CCCC2=O)n1` [Example 5, 1,3-benzoxazol-2(3H)-ylidene(2-{[3-(2-oxopyrrolidin-1-yl)propyl]amino}pyrimidin-4-yl)acetonitrile], the “insulin level reduced (percentage of vehicle control)” value was “about 11%”.
